# Test results published in publication PMC12040169 (PLOS Biology, 2025).
# Test: in vitro
# Settings: human, hela cells
row,SMILES,"viability at 28.5 h, 10 µM"
1,CNC(=O)Oc1cccc2cccnc12 [CBK015609],88.5%

# Same assay, conditions: human, hela cells, % viability
row,SMILES,"viability at 28.5 h, 10 µM"
1,CC(C)NC1=NC(=O)C(CC(=O)Nc2ccccc2)S1 (stereo not drawn) [CBK013880],90.7%
2,COc1ccc(C2(CNC(=O)C(O)COc3ccccc3)CCCC2)cc1OC (stereo not drawn) [CBK014053],88.5%
3,N#Cc1cnn2c(C(F)(F)F)cc(C(F)(F)F)nc12 [CBK014064],93.5%
4,CCOC(=O)CC1SC(NS(=O)(=O)c2ccc(Br)cc2)=NC1=O (stereo not drawn) [CBK014126],93.5%
5,CC(C)(C)c1nc(NS(=O)(=O)c2ccc(Cl)cc2)sc1Br [CBK014258],102%
6,O=C(O)c1ccc(OCc2n[nH]c(=S)n2-c2ccc(Cl)cc2)cc1 [CBK014317],102%
7,NC(=O)c1cccc(OCCOc2nccnc2N2CCNCC2)c1 [CBK014338G],114%
8,OCCOc1ccc(OCCOc2nccnc2N2CCNCC2)cc1 [CBK014349G],93.9%
9,COc1cc2c(cc1OC)C1(CCOCC1)CNC2CC(c1ccccc1)c1ccccc1 (stereo not drawn) [CBK014382],91.4%
10,c1ccc(-c2nc(N3CCOCC3)n3ccccc23)cc1 [CBK014407],89.2%
11,FC(F)(F)c1cccc(OCCOc2nccnc2N2CCNCC2)c1 [CBK014518G],105%
12,CC(C)N(C)C(=O)Cc1csc(N)n1 [CBK014608],100%
13,COc1cccc(CCN(Cc2ccc(S(=O)(=O)N3CCOC3=O)cc2)Cc2cccc(OCCO)c2)c1 [CBK014806],98.5%
14,COc1ccc(CN(Cc2ccc(OC)cc2)Cc2ccc(S(=O)(=O)N3CCOC3=O)cc2)cc1 [CBK014818],110%
15,CCn1c(C(C)Oc2ccc(Cl)cc2)n[nH]c1=S (stereo not drawn) [CBK015099],108%
16,CCn1c(C(O)c2ccccc2)n[nH]c1=S (stereo not drawn) [CBK015110],90.5%
17,CCOC(=O)N[C@@H](CC1CCCCC1)C(=O)NCCc1ccc(S(N)(=O)=O)cc1 [CBK015131],106%
18,CCC(CN(C)C)C(=O)c1ccccc1 (stereo not drawn) [CBK015409C],95.1%
19,OCC(O)CN1CCCC1 (stereo not drawn) [CBK015457],114%
20,CN1CCN(Cc2n[nH]c(=S)n2-c2cccc(C#N)c2)CC1 [CBK015465],112%
21,COc1ccc2c(c1)C(O)C(NCc1ccccc1)C2 (stereo not drawn) [CBK015469C],104%
22,O=C(O)c1cccc2cccc(-c3cccc4cccc(C(=O)O)c34)c12 [CBK015494],109%
23,FC(F)(F)c1ccc2c(c1)N(CCCN1CCCC1)c1ccccc1S2 [CBK015520C],88%
24,CNC(c1ccncc1)C(NC)c1ccncc1 (stereo not drawn) [CBK015546],95.9%

row,SMILES,"viability at 28.5 h, 10 µM"
1,CC(=O)Nc1ncc(Cl)s1 [CBK015564],108%
2,O=[N+]([O-])c1cc(S(=O)(=O)Nc2cccc3ccccc23)ccc1N1CCNCC1 [CBK015584C],90%
3,CCOC(=O)Cc1nc2cc([N+](=O)[O-])ccc2oc1=O [CBK015603],98%
4,C(=N\N=C\c1ccccn1)/c1ccccn1 [CBK015627],89%
5,COc1cc(C(=O)CCN2CCCCC2)cc(OC)c1OC [CBK015639C],107%
6,S=C1NCC(COc2ccc(Cl)cc2)O1 (stereo not drawn) [CBK015647],98.9%
7,NS(=O)(=O)c1ccc(Cl)c(Cl)c1 [CBK015652],118%
8,Cn1c(=O)oc2ccccc2c1=O [CBK015658],100%
9,COc1cc(C(=O)NC/C=N/O)cc(OC)c1OC [CBK015662],90%
10,Cc1nc(N)nc(N2CCN(C)CC2)n1 [CBK015681],100%
11,O=c1[nH]c2cc(Cl)cc(Cl)c2o1 [CBK015711],90.6%
12,OCCN1CSC(=S)N(CCc2ccc(Cl)cc2)C1 [CBK015713],122%
13,O=C(O)c1cc2ccccc2[nH]1 [CBK015732],100%
14,CC(C)n1c(=O)[nH]c2ccncc2c1=O [CBK015763],88.8%
15,N#Cc1cnc(NCc2ccccc2)nc1N [CBK015764],90%
16,Cc1ccccc1Nc1n[nH]c(=S)s1 [CBK015808],111%
17,CC(=O)c1ccc(O)c2ncccc12 [CBK015821],110%
18,CC(=O)C(/N=N\c1ccc(S(=O)(=O)Nc2nccs2)cc1)C(=O)Nc1ccc(Cl)cc1 (stereo not drawn) [CBK015826],86.8%
19,OCC1CCCCC1NCCCC(c1ccc(F)cc1)c1ccc(F)cc1 (stereo not drawn) [CBK015830C],104%
20,CN(C(=O)c1cccnc1)C(CC1CCCCC1)C1CCCCC1 (stereo not drawn) [CBK015849],99.1%
21,Cn1c(C(N)=O)cc(=O)n1-c1ccc([N+](=O)[O-])cc1 [CBK015873],101%
22,CCOc1ccc(OCCC#N)cc1 [CBK015880],84.7%
23,C/C(=N\Nc1ccc(Cl)c(Cl)c1)c1cccnc1 [CBK015914C],93.3%
24,Clc1ccc(Cl)c(N/N=C(\c2ccccc2)c2cccnc2)c1 [CBK015932C],96.9%

row,SMILES,"viability at 28.5 h, 10 µM"
1,Cc1nn(Cc2ccccc2)c(C)c1C(=O)N(C)C [CBK015942],104%
2,CO[C@]1(c2ccc(Cl)cc2)CC[C@H](NCCCC(=O)c2ccc(F)cc2)CC1 [CBK015959C],90.2%
3,COc1ccccc1C1CCC(NCCCC(=O)c2ccc(F)cc2)CC1 (stereo not drawn) [CBK015965C],105%
4,OC[C@]1(c2ccccc2)CC[C@H](N2CCCC2)CC1 [CBK016010],85.5%
5,O=C(c1ccccc1)c1cc(Cl)ccc1-n1ccnc1Br [CBK016011],90.4%
6,Cc1nnc2n1-c1ccccc1SC(c1ccccc1)C2 (stereo not drawn) [CBK016040],92.9%
7,C/C(=N\NC(=O)C1CC1)c1ccc(C)cc1 [CBK016047],90.7%
8,CCN(CC)CCn1nc2n(c1=O)-c1ccccc1SC(c1ccccc1)C2 (stereo not drawn) [CBK016064],91.9%
9,Cc1ccc2cn[nH]c2c1 [CBK016109],123%
10,CCOC(=O)N/N=C1\CCCCC1CC (stereo not drawn) [CBK016112],84.7%
11,COC(=O)Nc1nc2cc3cn[nH]c3cc2[nH]1 [CBK016129],105%
12,COC(=O)N/N=C(/C)c1ccc(C)cc1 [CBK016149],109%
13,Clc1ccccc1-c1nsc(Nc2ccccc2)n1 [CBK016152],96.2%
14,O=C(OCCN1C[C@H]2CCCCC2C1c1ccccc1)c1ccc(Br)cc1 (stereo partly drawn) [CBK016175C],104%
15,Cn1c(=O)c(-c2ccccc2)nc2ccccc21 [CBK016192],143%
16,Oc1nc2ccccc2nc1-c1ccccc1 [CBK016193],94.3%
17,O=C1CC2CC3CC2C(Sc2ccccc2)C3O1 (stereo not drawn) [CBK016225],97.4%
18,Fc1ccc(C2CCCN(CCCOc3cccc(F)c3)C2)cc1 (stereo not drawn) [CBK016228B],102%
19,COc1c(C(N)=O)c(O)c(OC)c2occc12 [CBK016255],80.5%
20,O=C(C[n+]1ccccc1)c1ccccc1Cl [CBK016283B],112%
21,O=C(NCCCN1CCOCC1)Nc1cccc(Cl)c1Cl [CBK016286],85.5%
22,CC(=O)c1cc(C)c(C)cc1N [CBK016322],127%
23,Oc1cccnc1SCc1nc2ccccc2s1 [CBK016367],112%
24,Nc1ccc2nc(CCCCCC(=O)O)sc2c1 [CBK016399],114%

row,SMILES,"viability at 28.5 h, 10 µM"
1,O=C(NO)Nc1cc(Cl)cc(Cl)c1 [CBK016430],109%
2,O=c1cc(-c2ccc(Br)cc2)nc2[nH]ccn12 [CBK016446],81%
3,CCOC(=O)N/N=C(/C)C(C)(C)C [CBK016460],105%
4,CN(C)CCCN[C@H]1CC[C@@H](c2ccccc2)CC1 [CBK016465],96.2%
5,Cc1ccc(/C=N\NC(=O)c2cccc(Cl)c2)s1 [CBK016469],90.8%
6,CCCC/C(=N/N=C(\CCCC)c1ccncc1)c1ccncc1 [CBK016521],120%
7,O=c1cc(N2CCOCC2)oc2cccc(O)c12 [CBK016536],91.3%
8,NC(=O)c1cc2c(OCCCN3CCN(C(c4ccccc4)c4ccccc4)CC3)cccc2[nH]1 [CBK016544],96%
9,Cc1cc2c(N3CCCC3)nc(N3CCCC3)nc2n1C [CBK016633C],101%
10,Cc1c(OCCC2CCCCN2C)ccc2c(=O)cc(N3CCOCC3)oc12 (stereo not drawn) [CBK016644],91.8%
11,S=C(NCc1ccc(Cl)c(Cl)c1)Nc1ccncc1 [CBK016649],84.9%
12,S=C(NCc1ccc(Cl)cc1)Nc1ccncc1 [CBK016651],79.5%
13,CC(C)n1c(=O)c2c(-c3cc(C(C)(C)C)no3)ncn2c2ccccc21 [CBK016666],86.6%
14,CCC(C)(C)Nc1cccnc1N(C)C1CCN(C(=O)c2cc3cc(N)ccc3[nH]2)CC1 [CBK016674],80.3%
15,CCC(c1ccc2ccccc2c1)c1c(O)c2ccccc2oc1=O (stereo not drawn) [CBK016681],96.7%
16,C[C@@H]1c2c(C(=O)OC(C)(C)C)ncn2-c2ccc(F)cc2N1CC(=O)N1CCCC1 [CBK016704],85.3%
17,c1c(C2CC2)[nH]c2nc(N3CCCC3)nc(N3CCCC3)c12 [CBK016707G],113%
18,CCc1c(C)nn(-c2ccccc2Cl)c1-c1ccccc1 [CBK016736],106%
19,CCc1c(C)nn(-c2ccccc2Br)c1-c1ccccc1 [CBK016757],87.9%
20,CN(c1ncccc1C#N)C1CCN(CCC(N)=O)CC1 [CBK016793],87.2%
21,CN(C)c1ncnc2[nH]ncc12 [CBK016810],115%
22,CCNc1cccnc1N(CC)C1CCN(C(=O)c2cc3cc4c(cc3[nH]2)OCO4)CC1 [CBK016815],111%
23,CC(C)c1ccnc(C(C)Sc2nc(N)c(Br)c(Cl)n2)c1 (stereo not drawn) [CBK016828],86.1%
24,COc1ccc(CCC(=O)c2cnc3sc4c(n23)CCCCC4)cc1 [CBK016849],109%

# Same assay, conditions: human, hela cells, % viability, bulk resorufin, single well
row,SMILES,"viability at 28.5 h, 10 µM"
1,COc1ccccc1CCNCc1ccc(Br)cc1 [CBK015036G],96.2%
2,COc1ccccc1CCNCc1ccccc1Br [CBK015149],87%
